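These data come from cells grown in 96-well plates and exposed to compound for 48 hours at five concentrations. Definition used: TGI = concentration required for complete inhibition of growth.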
Assays:
Assay in all cases: growth of human tumour cells (NCI), 48 h
COLO 205 colon = tested on: COLO 205 colon
IGROV1 ovarian = tested on: IGROV1 ovarian
MDA-MB-435 = tested on: MDA-MB-435
BT-549 breast = tested on: BT-549 breast
HOP-62 NSCLC = tested on: HOP-62 NSCLC
UACC-257 melanoma = tested on: UACC-257 melanoma
SW-620 colon = tested on: SW-620 colon
SR leukemia = tested on: SR leukemia
NCI-H23 lung = tested on: NCI-H23 lung
DU-145 prostate = tested on: DU-145 prostate
SF-539 CNS = tested on: SF-539 CNS
LOX IMVI melanoma = tested on: LOX IMVI melanoma
RXF 393 renal = tested on: RXF 393 renal
SF-295 CNS = tested on: SF-295 CNS
NCI-H226 lung = tested on: NCI-H226 lung
MDA-N = tested on: MDA-N
HS 578T breast = tested on: HS 578T breast
SNB-75 CNS = tested on: SNB-75 CNS
HOP-92 NSCLC = tested on: HOP-92 NSCLC
MALME-3M melanoma = tested on: MALME-3M melanoma
SK-MEL-5 melanoma = tested on: SK-MEL-5 melanoma
786-0 renal = tested on: 786-0 renal
MDA-MB-231 breast = tested on: MDA-MB-231 breast
T-47D breast = tested on: T-47D breast
OVCAR-5 ovarian = tested on: OVCAR-5 ovarian
A498 renal = tested on: A498 renal
HT29 colon = tested on: HT29 colon
SN12C renal = tested on: SN12C renal
OVCAR-3 ovarian = tested on: OVCAR-3 ovarian
UACC-62 melanoma = tested on: UACC-62 melanoma
NCI-H522 lung = tested on: NCI-H522 lung
TK-10 renal = tested on: TK-10 renal
OVCAR-4 ovarian = tested on: OVCAR-4 ovarian
HCC-2998 colon = tested on: HCC-2998 colon
CAKI-1 renal = tested on: CAKI-1 renal
K-562 leukemia = tested on: K-562 leukemia
NCI-H460 lung = tested on: NCI-H460 lung
ACHN renal = tested on: ACHN renal
OVCAR-8 ovarian = tested on: OVCAR-8 ovarian
SNB-19 CNS = tested on: SNB-19 CNS
SK-MEL-2 melanoma = tested on: SK-MEL-2 melanoma
SK-OV-3 ovarian = tested on: SK-OV-3 ovarian
HCT-15 colon = tested on: HCT-15 colon
PC-3 prostate = tested on: PC-3 prostate
EKVX NSCLC = tested on: EKVX NSCLC
U251 CNS = tested on: U251 CNS
SF-268 CNS = tested on: SF-268 CNS
MCF7 breast = tested on: MCF7 breast
HCT-116 colon = tested on: HCT-116 colon
A549 NSCLC = tested on: A549 NSCLC
HL-60(TB) leukemia = tested on: HL-60(TB) leukemia
M14 melanoma = tested on: M14 melanoma
KM12 colon = tested on: KM12 colon
NCI/ADR-RES ovarian = tested on: NCI/ADR-RES ovarian
UO-31 renal = tested on: UO-31 renal
SK-MEL-28 melanoma = tested on: SK-MEL-28 melanoma
RPMI-8226 leukemia = tested on: RPMI-8226 leukemia

Question: Which TGI (COLO 205 colon) does the source give for `O=C(Oc1ccc(S(=O)(=O)F)cc1F)c1ccccc1Cl` here?
Answer: Its TGI is 44.6 µM.

Question: What about the TGI (IGROV1 ovarian) of the same compound?
Answer: Its TGI is > 100 µM.

Question: What about the TGI (MDA-MB-435) of the same compound?
Answer: Its TGI is 74.6 µM.

Question: And the TGI (BT-549 breast)?
Answer: The TGI was > 100 µM.

Question: What about the TGI (HOP-62 NSCLC) of the same compound?
Answer: The TGI was > 100 µM.

Question: What about the TGI (UACC-257 melanoma) of the same compound?
Answer: The TGI was 78.8 µM.

Question: What about the TGI (SW-620 colon) of the same compound?
Answer: Its TGI is > 100 µM.

Question: And the TGI (SR leukemia)?
Answer: Its TGI is 55.8 µM.

Question: What about the TGI (NCI-H23 lung) of the same compound?
Answer: The TGI was 53.9 µM.

Question: And the TGI (DU-145 prostate)?
Answer: The TGI was > 100 µM.

Question: What about the TGI (SF-539 CNS) of the same compound?
Answer: Its TGI is 62.1 µM.

Question: And the TGI (LOX IMVI melanoma)?
Answer: Its TGI is > 100 µM.

Question: And the TGI (RXF 393 renal)?
Answer: The TGI was 64.5 µM.

Question: And the TGI (SF-295 CNS)?
Answer: Its TGI is 89.4 µM.

Question: And the TGI (NCI-H226 lung)?
Answer: The TGI was > 100 µM.

Question: What about the TGI (MDA-N) of the same compound?
Answer: The TGI was > 100 µM.

Question: And the TGI (HS 578T breast)?
Answer: The TGI was 65.2 µM.

Question: And the TGI (SNB-75 CNS)?
Answer: The TGI was 74.2 µM.

Question: And the TGI (HOP-92 NSCLC)?
Answer: The TGI was 65.1 µM.

Question: And the TGI (MALME-3M melanoma)?
Answer: The TGI was 86.4 µM.

Question: What about the TGI (SK-MEL-5 melanoma) of the same compound?
Answer: The TGI was 31.1 µM.

Question: And the TGI (786-0 renal)?
Answer: The TGI was > 100 µM.

Question: What about the TGI (MDA-MB-231 breast) of the same compound?
Answer: The TGI was 58 µM.

Question: And the TGI (T-47D breast)?
Answer: Its TGI is 84.3 µM.

Question: What about the TGI (OVCAR-5 ovarian) of the same compound?
Answer: Its TGI is > 100 µM.

Question: And the TGI (A498 renal)?
Answer: The TGI was > 100 µM.

Question: What about the TGI (HT29 colon) of the same compound?
Answer: Its TGI is 72.9 µM.

Question: What about the TGI (SN12C renal) of the same compound?
Answer: Its TGI is > 100 µM.

Question: And the TGI (OVCAR-3 ovarian)?
Answer: The TGI was 75.6 µM.

Question: What about the TGI (UACC-62 melanoma) of the same compound?
Answer: The TGI was > 100 µM.

Question: And the TGI (NCI-H522 lung)?
Answer: The TGI was 42 µM.

Question: And the TGI (TK-10 renal)?
Answer: Its TGI is > 100 µM.

Question: What about the TGI (OVCAR-4 ovarian) of the same compound?
Answer: Its TGI is 94.5 µM.

Question: What about the TGI (HCC-2998 colon) of the same compound?
Answer: Its TGI is > 100 µM.

Question: What about the TGI (CAKI-1 renal) of the same compound?
Answer: The TGI was > 100 µM.

Question: And the TGI (K-562 leukemia)?
Answer: Its TGI is > 100 µM.

Question: And the TGI (NCI-H460 lung)?
Answer: Its TGI is 70.5 µM.

Question: And the TGI (ACHN renal)?
Answer: Its TGI is > 100 µM.

Question: And the TGI (OVCAR-8 ovarian)?
Answer: The TGI was > 100 µM.

Question: And the TGI (SNB-19 CNS)?
Answer: The TGI was 87.2 µM.

Question: And the TGI (SK-MEL-2 melanoma)?
Answer: Its TGI is > 100 µM.

Question: What about the TGI (SK-OV-3 ovarian) of the same compound?
Answer: The TGI was > 100 µM.

Question: And the TGI (HCT-15 colon)?
Answer: The TGI was > 100 µM.

Question: And the TGI (PC-3 prostate)?
Answer: Its TGI is > 100 µM.

Question: What about the TGI (EKVX NSCLC) of the same compound?
Answer: Its TGI is 72.3 µM.

Question: And the TGI (U251 CNS)?
Answer: The TGI was > 100 µM.

Question: What about the TGI (SF-268 CNS) of the same compound?
Answer: Its TGI is > 100 µM.

Question: And the TGI (MCF7 breast)?
Answer: The TGI was 83.9 µM.

Question: What about the TGI (HCT-116 colon) of the same compound?
Answer: The TGI was > 100 µM.

Question: What about the TGI (A549 NSCLC) of the same compound?
Answer: The TGI was > 100 µM.

Question: And the TGI (HL-60(TB) leukemia)?
Answer: The TGI was > 100 µM.

Question: What about the TGI (M14 melanoma) of the same compound?
Answer: The TGI was > 100 µM.

Question: What about the TGI (KM12 colon) of the same compound?
Answer: The TGI was 60.9 µM.

Question: And the TGI (NCI/ADR-RES ovarian)?
Answer: Its TGI is > 100 µM.

Question: And the TGI (UO-31 renal)?
Answer: The TGI was 40 µM.

Question: What about the TGI (SK-MEL-28 melanoma) of the same compound?
Answer: Its TGI is > 100 µM.

Question: And the TGI (RPMI-8226 leukemia)?
Answer: The TGI was 45.6 µM.

Reference: PubChem BioAssay (NCI)
